# In patent US8063041B2 (Wyeth LLC, priority 2009, dated 2011):
# Legend:
# [1] = Solubility of bazedoxifene acetate forms (dynamic dissolution method using Crystal-16 and HPLC method); type: physicochemical; conditions: for solubility compared with Form B: crystallization solvent
# Method: The profiles of the temperature and magnetic stirring speed for each row may be independently adjusted. The turbidity of each vial was monitored and plotted with the temperature profiles to determine dissolution and precipitation points of solids. A pre-weighed amount of solid and solvent were mixed together in clear glass vials, and were heated slowly (at 0.2° C./min). The dissolution temperature was recorded. The concentration of the solution (calculated based on the weight of solid and solvent) was treated as the saturation concentration at the recorded temperature, and solubility was calculated based on this concentration. […] The suspension was filtered after stirring for 30 minutes and the solution concentration was analyzed by HPLC. The measured solubility data for the two methods are plotted in FIGS. 4 and 5.
# uterine response = conditions: preclinical models of uterine stimulation; cited from earlier work
# ovariectomized rat = ovariectomized rat model of osteopenia; cited from earlier work
# [2] = test system: MCF-7 cell line (human breast cancer cell line); conditions: cited from earlier work
structure (smiles),measurement,setting,value
CC(=O)O.Cc1c(-c2ccc(O)cc2)n(Cc2ccc(OCCN3CCCCCC3)cc2)c2ccc(O)cc12 [Form A],solubility compared with other forms,"[1]; all conditions studied, crystallization solvent and slurry test solvent",higher than Forms B and D
"Cc1c(-c2ccc(O)cc2)n(Cc2ccc(OCCN3CCCCCC3)cc2)c2ccc(O)cc12 [Form D, 1-[4-(2-azepan-1-yl-ethoxy)-benzyl]-2-(4-hydroxy-phenyl)-3-methyl-1H-indol-5-ol acetic acid]",solubility compared with Form A,[1]; at 0-60° C.,less soluble
same,solubility compared with Form B,[1]; above about 30° C.,slightly higher than that of Form B
same,solubility compared with Form B,[1]; below about 30° C.,very similar to Form B solubility
"Cc1c(-c2ccc(O)cc2)n(Cc2ccc(OCCN3CCCCCC3)cc2)c2ccc(O)cc12 [bazedoxifene acetate, 1-[4-(2-azepan-1-yl-ethoxy)-benzyl]-2-(4-hydroxy-phenyl)-3-methyl-1H-indol-5-ol acetic acid]",stimulation of uterine response,uterine response,little or no stimulation
same,preventing bone loss,ovariectomized rat,estrogen agonist-like effect
same,reducing cholesterol,ovariectomized rat,estrogen agonist-like effect
same,estrogen agonist/antagonist behaviour,[2],behaves as an estrogen antagonist
